Read-outs that look alike come from different tables or passages of the source.
Key:
Format in all cases: in vivo
[1] = system: ducksalad (Heteranthera limosa); assay: Test B flooded paddy test; details: for Ducksalad plant response rating: Flood, 31 g ai/ha, scale 0 to 100 (0 no effect, 100 complete control)
In short: (§1)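 Visual scores run from 0 (no effect) to 100 (complete control), assigned by comparison with controls 13 to 15 days after treatment. Test compounds went straight into water standing 3 cm above the soil, around plants at the 2-leaf stage kept in a greenhouse.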

[2] = system: barnyardgrass (Echinochloa crus-galli); assay: Test B flooded paddy test; details: for Barnyardgrass plant response rating: Flood, 31 g ai/ha, scale 0 to 100 (0 no effect, 100 complete control)
In short: as §1

[3] = system: rice (Oryza sativa); assay: Test B flooded paddy test; details: for Rice plant response rating: Flood, 31 g ai/ha, scale 0 to 100 (0 no effect, 100 complete control)
In short: as §1

[4] = system: umbrella sedge (Cyperus difformis); assay: Test B flooded paddy test; details: for Sedge, Umbrella plant response rating: Flood, 31 g ai/ha, scale 0 to 100 (0 no effect, 100 complete control)
In short: as §1

[5] = system: giant foxtail (Setaria faberii); assay: Test A pre-/postemergence plant response; details: for pest or weed control at 125 g/ha / pest or weed control at 500 g/ha: Setaria faberi, 240 h, read-out: Plant response rating, Foxtail, Giant
In short: (§2)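 Approximately ten days after concurrent pre- and postemergence spraying in a greenhouse, plants were compared with untreated controls and rated visually for injury, 0 = no effect to 100 = complete control. Preemergence spray was directed onto loam/sand soil; postemergence targeted 1–2 leaf seedlings.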

[6] = system: corn (Zea mays); assay: Test A pre-/postemergence plant response; details: for Corn plant response rating (crop injury, 0 = no effect, 100 = complete kill) at 125 g/ha / Corn plant response rating (crop injury, 0 = no effect, 100 = complete kill) at 500 g/ha: Zea mays, 240 h
In short: as §2

[7] = system: barnyardgrass (Echinochloa crus-galli); assay: Test A pre-/postemergence plant response; details: for pest or weed control at 125 g/ha / pest or weed control at 500 g/ha: Echinochloa crus-galli, 240 h, read-out: Plant response rating, Barnyardgrass
In short: as §2

[8] = system: pigweed (Amaranthus retroflexus); assay: Test A pre-/postemergence plant response; details: for pest or weed control at 125 g/ha / pest or weed control at 500 g/ha: Amaranthus retroflexus, 240 h, read-out: Plant response rating, Pigweed
In short: as §2

[9] = post-emergence, Postemergence, 125 g ai/ha, 0 to 100 scale where 0 is no effect and 100 is complete control
[10] = post-emergence, Postemergence, 500 g ai/ha, 0 to 100 scale, 0 = no effect, 100 = complete control, approx. ten days
[11] = pre-emergence, Preemergence, 125 g ai/ha, 0 to 100 scale, 0 = no effect, 100 = complete control
[12] = pre-emergence, Preemergence, 500 g ai/ha, visual injury, 0 to 100 scale (0 no effect, 100 complete control), approx. ten days
[13] = 250 g ai/ha, flooded paddy test, visual rating on 0 to 100 scale (0 no effect, 100 complete control) after 13 to 15 days
[14] = Flood (flooded paddy test), 62 g ai/ha, scale of 0 to 100 where 0 is no effect and 100 is complete control, 13 to 15 days
[15] = Flood (flooded paddy test), 125 g ai/ha, scale 0 to 100, 0 is no effect, 100 is complete control, 13 to 15 days
[16] = Postemergence, 125 g ai/ha, 0 to 100 scale where 0 is no effect and 100 is complete control
[17] = Postemergence, 500 g ai/ha, 0 to 100 scale, 0 = no effect, 100 = complete control, approx. ten days
[18] = Preemergence, 125 g ai/ha, 0 to 100 scale, 0 = no effect, 100 = complete control
[19] = Preemergence, 500 g ai/ha, visual injury, 0 to 100 scale (0 no effect, 100 complete control), approx. ten days

COCCn1c(-c2ccsc2)ncc(C(=O)C2=C(O)CCCC2=O)c1=O [Compound 97, 5-[(2-hydroxy-6-oxo-1-cyclohexen-1-yl)carbonyl]-3-(2-methoxyethyl)-2-(3-thienyl)-4(3H)-pyrimidinone]
Ducksalad plant response rating [1]: 30
pest or weed control at 250 g/ha ([1]; Heteranthera limosa, 360 h, 250 g ai/ha, flooded paddy test, visual rating on 0 to 100 scale (0 no effect, 100 complete control) after 13 to 15 days, read-out: Plant response rating, Flood, Ducksalad): 70%
pest or weed control at 62 g/ha ([1]; Heteranthera limosa, 360 h, Flood (flooded paddy test), 62 g ai/ha, scale of 0 to 100 where 0 is no effect and 100 is complete control, 13 to 15 days, read-out: Plant response rating, Ducksalad): 30%
pest or weed control at 125 g/ha ([1]; Heteranthera limosa, 360 h, Flood (flooded paddy test), 125 g ai/ha, scale 0 to 100, 0 is no effect, 100 is complete control, 13 to 15 days, read-out: Plant response rating, Ducksalad): 30%
pest or weed control at 250 g/ha ([2]; Echinochloa crus-galli, 360 h, 250 g ai/ha, flooded paddy test, visual rating on 0 to 100 scale (0 no effect, 100 complete control) after 13 to 15 days, read-out: Plant response rating, Flood, Barnyardgrass): 75%
pest or weed control at 62 g/ha ([2]; Echinochloa crus-galli, 360 h, Flood (flooded paddy test), 62 g ai/ha, scale of 0 to 100 where 0 is no effect and 100 is complete control, 13 to 15 days, read-out: Plant response rating, Barnyardgrass): 40%
pest or weed control at 125 g/ha ([2]; Echinochloa crus-galli, 360 h, Flood (flooded paddy test), 125 g ai/ha, scale 0 to 100, 0 is no effect, 100 is complete control, 13 to 15 days, read-out: Plant response rating, Barnyardgrass): 60%
Barnyardgrass plant response rating [2]: 30
Rice plant response rating [3]: 0
plant injury at 250 g/ha ([3]; Oryza sativa, 250 g ai/ha, flooded paddy test, visual rating on 0 to 100 scale (0 no effect, 100 complete control) after 13 to 15 days, read-out: Plant response rating, Flood, Rice): 40%
plant injury at 62 g/ha ([3]; Oryza sativa, Flood (flooded paddy test), 62 g ai/ha, scale of 0 to 100 where 0 is no effect and 100 is complete control, 13 to 15 days, read-out: Plant response rating, Rice): 0%
plant injury at 125 g/ha ([3]; Oryza sativa, Flood (flooded paddy test), 125 g ai/ha, scale 0 to 100, 0 is no effect, 100 is complete control, 13 to 15 days, read-out: Plant response rating, Rice): 0%
pest or weed control at 250 g/ha ([4]; Cyperus difformis, 360 h, 250 g ai/ha, flooded paddy test, visual rating on 0 to 100 scale (0 no effect, 100 complete control) after 13 to 15 days, read-out: Plant response rating, Flood, Sedge, Umbrella): 80%
pest or weed control at 62 g/ha ([4]; Cyperus difformis, 360 h, Flood (flooded paddy test), 62 g ai/ha, scale of 0 to 100 where 0 is no effect and 100 is complete control, 13 to 15 days, read-out: Plant response rating, Sedge, Umbrella): 40%
pest or weed control at 125 g/ha ([4]; Cyperus difformis, 360 h, Flood (flooded paddy test), 125 g ai/ha, scale 0 to 100, 0 is no effect, 100 is complete control, 13 to 15 days, read-out: Plant response rating, Sedge, Umbrella): 70%
Sedge, Umbrella plant response rating [4]: 30
pest or weed control at 125 g/ha [5, 9]: 60%
pest or weed control at 500 g/ha [5, 10]: 80%
pest or weed control at 125 g/ha [5, 11]: 60%
pest or weed control at 500 g/ha [5, 12]: 90%
Corn plant response rating (crop injury, 0 = no effect, 100 = complete kill) at 125 g/ha [6, 9]: 50%
Corn plant response rating (crop injury, 0 = no effect, 100 = complete kill) at 500 g/ha [6, 10]: 80%
Corn plant response rating (crop injury, 0 = no effect, 100 = complete kill) at 125 g/ha [6, 11]: 0%
Corn plant response rating (crop injury, 0 = no effect, 100 = complete kill) at 500 g/ha [6, 12]: 0%
pest or weed control at 125 g/ha [7, 9]: 90%
pest or weed control at 500 g/ha [7, 10]: 90%
pest or weed control at 125 g/ha [7, 11]: 60%
pest or weed control at 500 g/ha [7, 12]: 100%
pest or weed control at 125 g/ha [8, 9]: 100%
pest or weed control at 500 g/ha [8, 10]: 100%
pest or weed control at 125 g/ha [8, 11]: 100%
pest or weed control at 500 g/ha [8, 12]: 100%

O=C1CCCC(O)=C1C(=O)c1cnc(-c2ccsc2)n(CC2CCCO2)c1=O (stereo not drawn) [Compound 98]
Plant response rating, Flood, Ducksalad [1, 13]: 0
Plant response rating, Ducksalad [1, 14]: 0
Plant response rating, Ducksalad [1, 15]: 0
Ducksalad plant response rating [1]: 0
Plant response rating, Flood, Barnyardgrass [2, 13]: 50
Plant response rating, Barnyardgrass [2, 14]: 30
Plant response rating, Barnyardgrass [2, 15]: 30
Barnyardgrass plant response rating [2]: 0
Plant response rating, Flood, Rice [3, 13]: 40
Plant response rating, Rice [3, 14]: 0
Plant response rating, Rice [3, 15]: 0
Rice plant response rating [3]: 0
Plant response rating, Flood, Sedge, Umbrella [4, 13]: 75
Plant response rating, Sedge, Umbrella [4, 14]: 65
Plant response rating, Sedge, Umbrella [4, 15]: 75
Sedge, Umbrella plant response rating [4]: 40
Plant response rating, Foxtail, Giant [5, 16]: 70
Plant response rating, Foxtail, Giant [5, 17]: 90
Plant response rating, Foxtail, Giant [5, 18]: 40
Plant response rating, Foxtail, Giant [5, 19]: 80
Plant response rating, Corn [6, 16]: 0
Plant response rating, Corn [6, 17]: 60
Plant response rating, Corn [6, 18]: 0
Plant response rating, Corn [6, 19]: 0
Plant response rating, Barnyardgrass [7, 16]: 80
Plant response rating, Barnyardgrass [7, 17]: 90
Plant response rating, Barnyardgrass [7, 18]: 0
Plant response rating, Barnyardgrass [7, 19]: 60
Plant response rating, Pigweed [8, 16]: 100
Plant response rating, Pigweed [8, 17]: 100
Plant response rating, Pigweed [8, 18]: 100
Plant response rating, Pigweed [8, 19]: 100

O=C1CCCC(O)=C1C(=O)c1cnc(-c2ccsc2)n(C2CCCCC2)c1=O [Compound 99]
Plant response rating, Flood, Ducksalad [1, 13]: 80
Plant response rating, Ducksalad [1, 14]: 40
Plant response rating, Ducksalad [1, 15]: 75
Ducksalad plant response rating [1]: 30
Plant response rating, Flood, Barnyardgrass [2, 13]: 55
Plant response rating, Barnyardgrass [2, 14]: 20
Plant response rating, Barnyardgrass [2, 15]: 20
Barnyardgrass plant response rating [2]: 0
Plant response rating, Flood, Rice [3, 13]: 60
Plant response rating, Rice [3, 14]: 0
Plant response rating, Rice [3, 15]: 0
Rice plant response rating [3]: 0
Plant response rating, Flood, Sedge, Umbrella [4, 13]: 85
Plant response rating, Sedge, Umbrella [4, 14]: 50
Plant response rating, Sedge, Umbrella [4, 15]: 65
Sedge, Umbrella plant response rating [4]: 50
Plant response rating, Foxtail, Giant [5, 16]: 80
Plant response rating, Foxtail, Giant [5, 17]: 90
Plant response rating, Foxtail, Giant [5, 18]: 40
Plant response rating, Foxtail, Giant [5, 19]: 80
Plant response rating, Corn [6, 16]: 0
Plant response rating, Corn [6, 17]: 20
Plant response rating, Corn [6, 18]: 0
Plant response rating, Corn [6, 19]: 0
Plant response rating, Barnyardgrass [7, 16]: 90
Plant response rating, Barnyardgrass [7, 17]: 90
Plant response rating, Barnyardgrass [7, 18]: 10
Plant response rating, Barnyardgrass [7, 19]: 90
Plant response rating, Pigweed [8, 16]: 100
Plant response rating, Pigweed [8, 17]: 100
Plant response rating, Pigweed [8, 18]: 90
Plant response rating, Pigweed [8, 19]: 100
